# Reference: patent US20240319193A1, “CIRCULATING TUMOR CELL DIAGNOSTICS FOR BIOMARKERS PREDICTIVE OF RESISTANCE TO ANDROGEN RECEPTOR (AR) TARGETED THERAPIES” (Epic Sciences, Inc., priority 2014, published 2024)
# System: progressive mCRPC patients
# Experiment: Response to AR targeted therapy by baseline CTC AR expression (Epic CTC), Example 1
# Type: in vivo, human
# Settings: pooled AA+P or E patients; for patients with high AR who responded: high baseline AR expression on CTCs, N = 7; for patients with low AR who had a PSA decline and stable radiographic disease: low baseline AR expression on CTCs, N = 14, median follow-up 12 wks
# Excerpt: 48 samples from 21 unique progressive mCRPC patients treated with androgen receptor targeted (AR tx) therapies, 9 (43%) on Abiraterone plus Prednisone (AA+P) and 12 (57%) on Enzalutamide (E). Samples were collected and shipped to Epic Sciences, where cells were stained and CTC identified by fluorescent scanners and algorithmic analysis. CTCs, defined as classic (CK+CD45-w/intact DAPI nuclei and distinct), apopotic (CK+, CD45−, non-intact nuclei) and CK− (CK−, CD45-, intact and distinct) were identified. CTCs reported per mL of blood and were examined for AR, PTEN & ERG. CTC data were analyzed in context of PSA, Veridex CTC (reported per 7.5mL of blood), and clinical history.
Compound,patients with high AR who responded,patients with low AR who had a PSA decline and stable radiographic disease
CNC(=O)c1ccc(N2C(=S)N(c3ccc(C#N)c(C(F)(F)F)c3)C(=O)C2(C)C)cc1F [Enzalutamide],0%,53%
Abiraterone plus Prednisone,0%,53%
